Results from PubChem BioAssay AID330 (DTP/NCI, 2004).
Values joined by “and” are separate entries in the source; they are usually repeats but may differ in a detail not shown here. Equal values may be shown once. Toxic doses and inconclusive results are not listed.

System: P388 leukemia ip, CD2F1 mice, survival T/C
Experiment: NCI In Vivo Anticancer Drug Screen. Data for tumor model P388 Leukemia (intraperitoneal) in CD2F1 (CDF1) mice
Conditions: endpoint: median survival time, higher = longer survival
Method in brief: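 Mice carrying the transplanted tumor received test compound or vehicle. Survival was recorded in each group, and the value is the treated-group measurement divided by that of the vehicle-treated control group.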

[1] = dose: 50.0 mg/kg/injection, schedule: Q01DX009 (ip), vehicle: saline with Tween-80
[2] = dose: 100.0 mg/kg/injection, schedule: Q01DX009 (ip), vehicle: saline with Tween-80
[3] = dose: 200.0 mg/kg/injection, schedule: Q01DX009 (ip), vehicle: saline with Tween-80
[4] = dose: 50.0 mg/kg/injection, schedule: Q01DX005 (ip), vehicle: Klucel (hydroxypropylcellulose) (HPC)
[5] = dose: 100.0 mg/kg/injection, schedule: Q01DX005 (ip), vehicle: Klucel (hydroxypropylcellulose) (HPC)

O=C(CCl)NCC1OC(n2cnc3c(=O)[nH]cnc32)C(O)C1O (stereo unspecified)
T/C (dose: 50.0 mg/kg/injection, schedule: Q01DX005 (ip), vehicle: saline): 98 % of control
T/C (dose: 100.0 mg/kg/injection, schedule: Q01DX005 (ip), vehicle: saline): 96 % of control
T/C (dose: 200.0 mg/kg/injection, schedule: Q01DX005 (ip), vehicle: saline): 100 % of control

CN(C)c1nc(NO)nc(N(C)C)n1
T/C [1]: 103 % of control
T/C [2]: 107 % of control
T/C [3]: 112 % of control

Cc1ccc(S(=O)(=O)NC(=O)Nc2ncn[nH]2)cc1
T/C [1]: 99 % of control
T/C [2]: 98 % of control
T/C [3]: 104 % of control

CC1=C[P+](c2ccccc2)(c2ccccc2)C=C(C)O1
T/C (dose: 3.12 mg/kg/injection, schedule: Q01DX005 (ip), vehicle: saline): 96 % of control
T/C (dose: 6.25 mg/kg/injection, schedule: Q01DX005 (ip), vehicle: saline): 105 % of control
T/C (dose: 12.5 mg/kg/injection, schedule: Q01DX005 (ip), vehicle: saline): 105 % of control

CCOP(=O)(CCCCN1C(=O)c2ccccc2C1=O)OCC
T/C (dose: 100.0 mg/kg/injection, schedule: Q01DX009 (ip), vehicle: saline): 100 % of control
T/C (dose: 200.0 mg/kg/injection, schedule: Q01DX009 (ip), vehicle: saline): 100 % of control
T/C (dose: 400.0 mg/kg/injection, schedule: Q01DX009 (ip), vehicle: saline): 100 % of control

N=C(N)c1ccc(N=Nc2ccc(O)c3c2ccc[n+]3[O-])cc1
T/C (dose: 3.13 mg/kg/injection, schedule: Q01DX005 (ip), vehicle: Klucel (hydroxypropylcellulose) (HPC)): 106 % of control
T/C (dose: 6.25 mg/kg/injection, schedule: Q01DX005 (ip), vehicle: Klucel (hydroxypropylcellulose) (HPC)): 97 % of control
T/C (dose: 12.5 mg/kg/injection, schedule: Q01DX005 (ip), vehicle: Klucel (hydroxypropylcellulose) (HPC)): 106 % of control
T/C (dose: 25.0 mg/kg/injection, schedule: Q01DX005 (ip), vehicle: Klucel (hydroxypropylcellulose) (HPC)): 109 % of control and 110 % of control and 117 % of control
T/C [4]: 117 % of control
T/C [5]: 103 % of control and 123 % of control
T/C (dose: 200.0 mg/kg/injection, schedule: Q01DX005 (ip), vehicle: Klucel (hydroxypropylcellulose) (HPC)): 110 % of control

O=C1NC2C(=CC(O)C(O)C2O)c2cc3c(cc21)OCO3 (stereo unspecified)
T/C (dose: 3.12 mg/kg/injection, schedule: Q01DX009 (ip), vehicle: saline + alcohol): 102 % of control
T/C (dose: 6.25 mg/kg/injection, schedule: Q01DX005 (ip), vehicle: saline + alcohol): 111 % of control
T/C (dose: 6.25 mg/kg/injection, schedule: Q01DX009 (ip), vehicle: saline + alcohol): 102 % of control
T/C (dose: 12.5 mg/kg/injection, schedule: Q01DX005 (ip), vehicle: saline + alcohol): 111 % of control
T/C (dose: 25.0 mg/kg/injection, schedule: Q01DX005 (ip), vehicle: saline + alcohol): 105 % of control
T/C (dose: 25.0 mg/kg/injection, schedule: Q01DX009 (ip), vehicle: saline + alcohol): 101 % of control
T/C (dose: 50.0 mg/kg/injection, schedule: Q01DX005 (ip), vehicle: saline + alcohol): 105 % of control

CC(=O)Nc1ccc(/C=C2/C(=O)ON=C2C)cc1
T/C (dose: 60.0 mg/kg/injection, schedule: Q01DX005 (ip), vehicle: saline with Tween-80): 116 % of control
T/C (dose: 120.0 mg/kg/injection, schedule: Q01DX005 (ip), vehicle: saline with Tween-80): 116 % of control

CNC1C(O)C2Oc3c(cc(O)c4c3C(=O)c3cc5c(c(O)c3C4=O)C(OC)CC(C)(O)C5)C(C)(O2)C1O (stereo unspecified)
T/C (dose: 0.62 mg/kg/injection, schedule: Q01DX009 (ip), vehicle: saline): 151 % of control
T/C (dose: 1.25 mg/kg/injection, schedule: Q01DX009 (ip), vehicle: saline): 173 % of control
T/C (dose: 2.5 mg/kg/injection, schedule: Q01DX009 (ip), vehicle: saline): 115 % of control

N#Cc1nnn(-c2ccc(Cl)cc2)c1N
T/C [4]: 99 % of control
T/C [5]: 97 % of control
